Measurements reported in US9241487B2, “Pyrimidine derivatives and use thereof as pesticides” (BAYER INTELLECTUAL PROPERTY GMBH, priority 2010, dated 2016).

Tests used:
Assay type in all cases: in vivo
Alternaria solani = test: Alternaria test (tomato)/protective; settings: 168 h, tomato plants, protective spray, evaluation 7 days after inoculation, read-out: Efficacy (%)
Protocol: Alternaria Test (Tomato)/Protective
(§1) Solvent: 49 parts by weight of N,N-dimethylformamide
(§2) Emulsifier: 1 part by weight of alkylaryl polyglycol ether
To produce a suitable preparation of active compound, 1 part by weight of active compound is mixed with the stated amounts of solvent and emulsifier, and the concentrate is diluted with water to the desired concentration. To test for protective activity, young tomato plants are sprayed with the preparation of active compound at the stated application rate. 1 day after the treatment, the plants are inoculated with a spore suspension of Alternaria solani and then remain at 100% rd. humidity and 22° C. for 24 h. The plants then remain at 96% rd. atmospheric humidity and a temperature of 20° C. Evaluation is carried out 7 days after the inoculation. 0% means an efficacy which corresponds to that of the control, whereas an efficacy of 100% means that no infection is observed.
(§3) In this test, the following compounds according to the invention show, at an active compound concentration of 500 ppm, an efficacy of 70% or more: […]

Leptosphaeria nodorum = Leptosphaeria nodorum test (wheat)/protective; settings: Parastagonospora nodorum, wheat plants, protective spray, evaluation 7-9 days after inoculation, read-out: Efficacy (%)
Protocol: Leptosphaeria nodorum Test (Wheat)/Protective
as §1, §2
To produce a suitable preparation of active compound, 1 part by weight of active compound is mixed with the stated amounts of solvent and emulsifier, and the concentrate is diluted with water to the desired concentration. To test for protective activity, young wheat plants are sprayed with the preparation of active compound at the stated application rate. 1 day after the treatment, the plants are inoculated with an aqueous spore suspension of Leptosphaeria nodorum and then remain at 100% relative atmospheric humidity and 22° C. for 48 h. The plants are then placed in a greenhouse at 90% relative atmospheric humidity and a temperature of 22° C. Evaluation is carried out 7-9 days after the inoculation. 0% means an efficacy which corresponds to that of the control, whereas an efficacy of 100% means that no infection is observed. In this test, the following compounds according to the invention show, at an active compound concentration of 500 ppm, an efficacy of 70% or more: […]

Venturia inaequalis = test: Venturia test (apple)/protective; settings: 240 h, protective spray, evaluation 10 days after inoculation, read-out: Efficacy (%)
Protocol: Venturia Test (Apple)/Protective
(§4) Solvents: 24.5 parts by weight of acetone
(§5) • 24.5 parts by weight of dimethylacetamide Emulsifier: 1 part by weight of alkylaryl polyglycol ether
(§6) To produce a suitable preparation of active compound, 1 part by weight of active compound is mixed with the stated amounts of solvent and emulsifier, and the concentrate is diluted with water to the desired concentration. To test for protective activity, young plants are sprayed with the preparation of active compound at the stated application rate. After the spray coating has dried on, the plants are inoculated with an aqueous conidia suspension of the apple scab pathogen Venturia inaequalis and then remain in an incubation cabin at approx. 20° C. and 100% relative air humidity for 1 day. The plants are then placed in the greenhouse at about 21° C. and a relative atmospheric humidity of about 90%. Evaluation follows 10 days after the inoculation. 0% means an efficacy which corresponds to that of the control, whereas an efficacy of 100% means that no infection is observed.
(§7) In this test, the following compounds according to the invention show, at an active compound concentration of 100 ppm, an efficacy of 70% or more: […]

Uromyces appendiculatus = test: Uromyces test (bean)/protective; settings: 240 h, protective spray, evaluation 10 days after inoculation, read-out: Efficacy (%)
Protocol: Uromyces Test (Bean)/Protective
as §4, §5
as §6, with “spore” for “conidia”, “bean rust” for “apple scab”, “Uromyces appendiculatus” for “Venturia inaequalis”, “about” for “approx.”, “atmospheric” for “air”
as §7

[1] = test system: Blumeria graminis fsp. hordei; test: Blumeria graminis test (barley)/protective; settings: 168 h, protective spray, evaluation 7 days after inoculation, read-out: Efficacy (%)
Protocol: Blumeria graminis Test (Barley)/Protective
(§8) Solvent: 49 parts by weight of N,N-dimethylacetamide
as §2
To produce a suitable preparation of active compound, 1 part by weight of active compound is mixed with the stated amounts of solvent and emulsifier, and the concentrate is diluted with water to the desired concentration. To test for protective activity, young plants are sprayed with the preparation of active compound at the stated application rate. After the spray coating has dried on, the plants are dusted with spores of Blumeria graminis fsp. hordei. The plants are placed in a greenhouse at a temperature of about 18° C. and a relative air humidity of about 80% to promote the development of mildew pustules. Evaluation follows 7 days after the inoculation. 0% means an efficacy which corresponds to that of the control, whereas an efficacy of 100% means that no infection is observed.
as §3

Septoria tritici = Septoria tritici test (wheat)/protective; settings: Zymoseptoria tritici, 504 h, protective spray, evaluation 21 days after inoculation, read-out: Efficacy (%)
Protocol: Septoria tritici Test (Wheat)/Protective
as §8, §2
To produce a suitable preparation of active compound, 1 part by weight of active compound is mixed with the stated amounts of solvent and emulsifier, and the concentrate is diluted with water to the desired concentration. To test for protective activity, young plants are sprayed with the preparation of active compound at the stated application rate. After the spray coating has dried on, the plants are sprayed with a spore suspension of Septoria tritici. The plants remain in an incubation cabin at 20° C. and 100% relative atmospheric humidity for 48 hours. Thereafter, the plants are placed under a translucent hood at 15° C. and 100% relative air humidity for a further 60 hours. The plants are placed in a greenhouse at a temperature of about 15° C. and a relative atmospheric humidity of about 80%. Evaluation follows 21 days after the inoculation. 0% means an efficacy which corresponds to that of the control, whereas an efficacy of 100% means that no infection is observed.
as §3

Structure (SMILES)	pest or weed control at 500 ppm (Alternaria solani)	pest or weed control at 500 ppm (Leptosphaeria nodorum)	pest or weed control at 100 ppm (Venturia inaequalis)	pest or weed control at 100 ppm (Uromyces appendiculatus)	pest or weed control at 500 ppm [1]	pest or weed control at 500 ppm (Septoria tritici)
CC(C)C(O)(COc1ccc(OC(F)(F)F)cc1)c1cncnc1 (stereo not drawn) [Compound 2]	100%	100%	94%	100%	100%	93%
CC(C)(C)C(O)(COc1ccc(OC(F)(F)F)cc1)c1cncnc1 (stereo not drawn) [Compound 12]	100%	95%	99%	100%	100%	100%
CC(C)(C)C(O)(COc1ccc(SC(F)(F)F)cc1)c1cncnc1 (stereo not drawn) [Compound 17]	94%	94%	100%	100%	100%	100%
CC1(C(O)(COc2ccc(OC(F)(F)F)cc2)c2cncnc2)CC1 (stereo not drawn) [Compound 18]	90%	95%	99%	100%	100%	100%
